Laboratory results: US20250177302A1, “LIPOSOME COMPOSITION AND LIPOSOME-CONTAINING PHARMACEUTICAL COMPOSITION” (Eisai R&D Management Co., Ltd., priority 2022, published 2025)

What was measured:
[1] = Measurement of blood drug concentration (2), change over time; type: in vivo; details: mice, i.v. 2 mg/kg, 15 minutes, 4 hours and 24 hours after administration
Method: The blood was centrifuged for 10 minutes at about 1200 g, and the plasma was collected. The drug concentration of the harvested plasma was assayed using LC-MS/MS.
The liposome compositions of Examples 2, 5 and 8, and an aqueous solution of methanesulfonic acid salt of compound (I), were administered to mice by the same method as “4. Measurement of blood drug concentration (1)”, collecting blood at 15 minutes, 4 hours and 24 hours after administration, and measuring the change in blood drug concentration.

[2] = tested on: HUVEC proliferation in the presence of VEGF; assay: HUVEC 2D growth assay, cell proliferation by VEGF stimulation; type: cell-based; details: Homo sapiens, 72 h, VEGF 20 ng/mL, 3 days, CellTiter-Glo
Method: (§1) 1. Measurement of Inhibiting Effect on Cell Proliferation by Vascular Endothelial Growth Factor (VEGF) or Basic Fibroblast Growth Factor (bFGF) Stimulation
(§2) The inhibiting effect of compound (I) on cell proliferation by VEGF or bFGF stimulation was evaluated by the following procedure based on HUVEC 2D growth assay.
(§3) Normal human umbilical vein endothelial cells (HUVEC) were isolated by a previously reported method (Shinseikagaku Jikken Koza, “Cell Culture Technology”, p.197-202). The cells were cultured overnight in a collagen I-coated flask (IWAKI 4143-010), with EGM-2 culture medium (Lonza Inc CC-3162) containing 10% Fetal Bovine Serum (FBS: Sigma 172012) in a 5% CO2 incubator (37° C.). On the following day, the culture supernatant was discarded and the medium was exchanged with EBM-2 culture medium containing 2% FBS, prior to further culturing overnight. On the following day, 2% FBS, and a HUVEC cell suspension prepared to 1.5×10^4 cells/mL with Human Endothelial Serum Free Medium (SFM: Gibco 11111-044) containing penicillin/streptomycin (FujiFilm-Wako Pure Chemical Industries) (hereunder referred to as “2% FBS-SFM”) were each added at 100 μL to each well of a 96-well plate (Corning 3904), and culturing was carried out overnight in a 5% CO2 incubator (37° C.). […]

[3] = tested on: HUVEC proliferation in the presence of bFGF; assay: HUVEC 2D growth assay, cell proliferation by bFGF stimulation; type: cell-based; details: Homo sapiens, 72 h, bFGF 20 ng/mL, 3 days, CellTiter-Glo
Method: as §1, §2, §3

Compound	Change in blood drug concentration (FIG. 1), in words [1]	IC50 [2]	IC50 [3]
CCNC(=O)Nc1ccc(Oc2ccnc3cc(OC)c(C(N)=O)cc23)cc1Cl.CS(=O)(=O)O [4-(3-Chloro-4-(ethylaminocarbonyl)aminophenoxy)-7-methoxy-6-quinolinecarboxamide methanesulfonate]	significantly lower after 24 hours	–	–
CCNC(=O)Nc1ccc(Oc2ccnc3cc(OC)c(C(N)=O)cc23)cc1Cl [compound (I), 4-(3-chloro-4-(ethylaminocarbonyl)aminophenoxy)-7-methoxy-6-quinolinecarboxamide]	–	1.75 nM	343 nM
